We go through two compounds from patent US9643984B2, “Method for the preparation of [1,2,4]-triazolo[4,3-a]pyridines” (AMGEN, INC., priority 2013, dated 2017).

The nature of the series: solid-form stability of Compound A (humidity, temperature, air). The series is classed as physicochemical.

`COCCOc1cnc2ccn([C@H](C)c3nnc4c(F)cc(-c5cnn(C)c5)cn34)c(=O)c2c1` [Compound A, (R)-6-(1-(8-fluoro-6-(1-methyl-1H-pyrazol-4-yl)-[1,2,4]triazolo[4,3-a]pyridin-3-yl)ethyl)-3-(2-methoxyethoxy)-1,6-naphthyridin-5(6H)-one]: the “stability to air, moisture and elevated temperature” value (isolated as salt form (e.g., HCl salt) or monohydrate form) was “stable to air, moisture, and elevated temperature”. For the same compound, the “relative humidity at which the monohydrate crystalline solid reversibly dehydrates” value (monohydrate crystalline solid isolated in Example 8) was below 11 % RH.

Regarding `COCCOc1cnc2ccn([C@H](C)c3nnc4c(F)cc(-c5cnn(C)c5)cn34)c(=O)c2c1` [monohydrate form of Compound A], the “temperature up to which the monohydrate form is stable and robust” value (monohydrate form, solid) was “up to 50 °C”.
